Consider 16 compounds from patent US6046239A, “Anthranilic acid analogs” (American Home Products Corporation, priority 1998, dated 2000).

One assay deals with Aorta. Briefly: Inhibition of contractions in aorta (indication of selectivity). Format: cell-based. Particulars: aorta.
Assay [1] relates to Isolated Rat Bladder Strips. Description: Inhibition of contractions in isolated rat bladder strips. The assay is classed as cell-based. Conditions: for IC50: contractions enhanced by additional 15 mM KCl, read-out: IC50 /μM Bladder (B); for IC50 (A)/ IC50 (B): ratio aorta/bladder, indication of selectivity. How it is done:
Sprague-Dawley rats (150-200 g) are rendered unconscious by CO2 asphyxiation and then euthanized by cervical dislocation. […] The bladder is opened and then cut into strips 1-2 mm in width and 7-10 mm in length. The strips are subsequently suspended in a 10 mL tissue bath under an initial resting tension of 1.5 g. The strips are held in place by two surgical clips one of which is attached to a fixed hook while the other is attached to an isometric force transducer. […] The carbachol is then washed out and the tissue allowed to relax to its resting level of activity. Following a further 30 min period of recovery an additional 15 mM KCl are introduced into the tissue bath. […] Following stabilization of this enhanced level of contractile activity, incremental increases in the concentration of test compound or vehicle are introduced into the tissue bath. Contractile activity is measured for each compound or vehicle concentration during the last minute of a 30 minute challenge.

The test system of assay [2] is hypertrophied bladder (detrussor) smooth muscle. Description: Inhibition of spontaneous contractions in vivo, hypertrophied rat bladder model. Conditions: 30 mg/kg i.v. An excerpt:
In addition, we tested the ability of compounds to inhibit the hyperactivity of hypertrophied bladder (detrussor) smooth muscle in conscious female rats with hypertrophied bladders and thereby alleviate urinary incontinence in rats according to the following protocol described by Malmgrem (A. Malmgrem, K. E. Andersson, C. Sjogren, P. O. Andersson, Effects of Pinacidil and Cromakalim (BRL 34915) on Bladder Function in Rats with Detrusor Instability, J. Urol. 142:1134, 1989.):
Female Sprague-Dawley rats, ranging in weight from 190-210 g are used. Up to 25 animals are prepared each time. After development of bladder hypertrophy 4-8 animals are used per test.
Compounds are dissolved in PEG-200 and administered by gastric gavage or intraveneously in a volume of 5 mL/kg. For primary screening all drugs are administered at the arbitrary dose of 10 mg/kg p.o. to groups of 4 rats.
The animals are anesthetized with halothane. […]
The following urodynamic variables are recorded:
The mean value of each variable is calculated before and after compound administration. For each compound the changes in the variables measured are compared to the values obtained before treatment and expressed as percent inhibition. The data are also subjected to 2-way analysis of variance to determine significant (p<0.05) changes in the variable measured. […]

Assay [3] concerns the target T1, calcium-dependent large conductance potassium channels (maxi K^+) (Rattus norvegicus, UniProt Q62976).
T1 construct: endogenous in cells; host or cells: freshly isolated rat detrusor (urinary bladder smooth muscle) cells
Description: Potassium channel activation, whole cell patch clamp in isolated rat detrusor cells. Conditions: glyburide 5 μM added to the superfusate; data not shown. Format: cell-based. How it is done: Potassium channel activation by compounds of the present invention was established by examining the effect of the compound of Example 1 on calcium-dependent large conductance potassium channels (maxi K^+) as follows:
Rat detrusor cells were isolated in a manner previously described for guinea-pig detrusor (Sheldon and Argentieri, 1995). Male Sprague-Dawley rats (200-400 grams) were euthanized by CO2 inhalation and exsanguination. Their urinary bladders were rapidly removed and placed in 37° C. physiological solution with the following composition (mM): Na glutamate (80.0), NaCl (54.7), KCl (5.0), NaHCO3 (25.0), MgCl2.2H2 O (2.5), D-glucose (11.8) and CaCl2 (0.2) gassed with CO2 --O2, 95%/5% for a final pH of 7.4. The dome of the bladder was isolated from the trigon region and the mucosa was removed. This tissue was then cut into 2-3 mm wide strips and placed in fresh buffer for 1 hour. Tissues were then transferred into 10.0 ml of an isolation buffer containing the above composition plus collagenase type VIII (1.0 mg/ml) and pronase (0.25 mg/ml). After 10 minutes the isolation buffer was replaced with fresh isolation buffer for an additional 10 min. […]
Whole cell recordings were made using broken patch assess. […] After stability was achieved control currents were recorded. […] Currents were recorded for 5 to 10 minutes or until compound effects reached steady state. […]
For orientation: In patch-clamp work, channel activity is measured electrically.

Where [4] appears, read: Rattus norvegicus, isolated rat bladder strips.
The mark [5] stands for this setting: isolated rat bladder strips, lithium salt hemihydrate.

By inhibition is commonly meant the change of the read-out against control, counted positive when it falls.

Counter-ions that a name gives are not always drawn. Like-named read-outs stand apart in the source and are kept apart here.

T1 sequence (Q62976 whole entry): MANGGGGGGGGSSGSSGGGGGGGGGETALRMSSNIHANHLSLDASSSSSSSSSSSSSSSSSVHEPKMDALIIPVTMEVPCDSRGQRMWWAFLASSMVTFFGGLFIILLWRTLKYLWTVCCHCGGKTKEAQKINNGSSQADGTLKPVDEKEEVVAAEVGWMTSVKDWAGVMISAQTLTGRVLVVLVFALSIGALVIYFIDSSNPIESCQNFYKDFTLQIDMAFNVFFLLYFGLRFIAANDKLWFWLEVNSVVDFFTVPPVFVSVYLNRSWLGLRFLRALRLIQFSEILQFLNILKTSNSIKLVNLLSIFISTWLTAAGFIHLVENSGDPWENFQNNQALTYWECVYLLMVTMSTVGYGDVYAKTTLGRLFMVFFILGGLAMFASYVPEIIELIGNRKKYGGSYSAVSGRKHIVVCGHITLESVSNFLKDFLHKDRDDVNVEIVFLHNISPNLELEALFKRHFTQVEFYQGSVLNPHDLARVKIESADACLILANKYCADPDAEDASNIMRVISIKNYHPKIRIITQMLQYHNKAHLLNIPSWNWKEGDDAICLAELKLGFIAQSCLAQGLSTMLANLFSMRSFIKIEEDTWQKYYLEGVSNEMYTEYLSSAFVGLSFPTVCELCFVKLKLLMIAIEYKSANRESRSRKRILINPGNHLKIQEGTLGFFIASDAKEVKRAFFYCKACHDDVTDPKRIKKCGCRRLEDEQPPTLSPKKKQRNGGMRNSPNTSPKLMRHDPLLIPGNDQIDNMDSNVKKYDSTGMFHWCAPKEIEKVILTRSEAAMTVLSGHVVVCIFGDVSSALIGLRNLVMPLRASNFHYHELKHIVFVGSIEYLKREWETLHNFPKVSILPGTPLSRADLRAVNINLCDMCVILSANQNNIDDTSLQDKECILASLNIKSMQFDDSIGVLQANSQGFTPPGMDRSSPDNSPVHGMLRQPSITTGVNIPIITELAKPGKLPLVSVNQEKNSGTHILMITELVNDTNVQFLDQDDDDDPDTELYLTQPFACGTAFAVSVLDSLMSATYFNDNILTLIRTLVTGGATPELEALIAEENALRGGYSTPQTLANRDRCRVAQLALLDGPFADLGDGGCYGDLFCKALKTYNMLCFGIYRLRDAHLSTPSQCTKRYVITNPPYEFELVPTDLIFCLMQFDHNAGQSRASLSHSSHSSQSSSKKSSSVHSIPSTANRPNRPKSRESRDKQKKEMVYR
T1 sequence (P97678 whole entry partner): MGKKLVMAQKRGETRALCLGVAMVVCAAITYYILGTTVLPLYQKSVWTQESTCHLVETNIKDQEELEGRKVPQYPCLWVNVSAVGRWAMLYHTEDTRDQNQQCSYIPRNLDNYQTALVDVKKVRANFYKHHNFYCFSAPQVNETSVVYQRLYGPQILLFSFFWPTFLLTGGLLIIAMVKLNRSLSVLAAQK

As to `C/C(=C\c1ccc(C(F)(F)F)cc1)C(=O)Nc1ccccc1C(=O)O` [Example 1, Step 3, (E)-2-[2-Methyl-3-(4trifluoromethyl-phenyl)-acryloylamino]-benzoic acid], the IC50 amounted to 61.2 ± 9.2 µM in the assay on Aorta and 3.7 ± 2.1 µM in assay [1] (setting [4]). In addition, the “IC50 (A)/ IC50 (B)” value in assay [1] came out at 16.5.
For `O=C(CCc1ccc(C(F)(F)F)cc1)Nc1ccccc1C(=O)O` [Example 2, 2-[3-(4-Trifluoromethyl-phenyl)-propionylamino]-benzoic acid], the figures for the IC50 (with Aorta; in assay [1] (setting [4])) were 118 ± 27.6 µM and 14.1 ± 1.77 µM, respectively. The “IC50 (A)/ IC50 (B)” value in assay [1] is 8.4.
Regarding `O=C(/C=C/c1ccc(Br)cc1)Nc1ccccc1C(=O)O` [Example 3, (E)-2-[3-(4-Bromo-phenyl)-acryloylamino]-benzoic acid], the figures for the IC50 (in the assay on Aorta; in assay [1] (setting [4])) were 53.5 ± 7 µM and 4.9 ± 2.6 µM, respectively. In addition, the “IC50 (A)/ IC50 (B)” value in assay [1] turned out to be 11.
Take `O=C(/C=C/c1ccc(C(F)(F)F)cc1)Nc1ccccc1C(=O)O` [Example 4]: the IC50 came to 39.5 ± 12 µM with Aorta and 3.37 ± 0.59 µM in assay [1] (setting [4]). Also, in assay [1], the “IC50 (A)/ IC50 (B)” value was 11.7.
Regarding `O=C(/C=C/c1ccc(C(F)(F)F)cc1)Nc1ccccc1C(=O)O` [Example 5, (E)-2-[3[(4-Trifluoromethyl-phenyl)-acryloylamino]-benzoic acid lithium salt hemihydrate], the IC50 in the assay on Aorta (lithium salt hemihydrate) amounted to 146 ± 49 µM; in assay [1] (setting [5]) it was 5.3 ± 2.8 µM. Further, the “IC50 (A)/ IC50 (B)” value in assay [1] (lithium salt hemihydrate) came out at 27.5.
In the case of `C=C(CC(=O)Nc1ccccc1C(=O)O)c1ccc(C(F)(F)F)cc1` [Example 6, 2-[3-(4-Trifluoromethyl-phenyl)-but-3-enoylamino]-benzoic acid], the IC50 in assay [1] (setting [4]) turned out to be 18.1 ± 4.2 µM.
For `C/C(=C\C(=O)Nc1ccccc1C(=O)O)c1ccc(C(F)(F)F)cc1` [Example 7, (E)-2-[3-(4-Trifluoromethyl-phenyl)-but-2-enoylamino]-benzoic acid sodium salt], the IC50 in assay [1] (isolated rat bladder strips) is 7.4 ± 4 µM.
In the case of `C/C(=C\c1ccc(C(F)(F)F)cc1)C(=O)Nc1ccc(Cl)cc1C(=O)O` [Example 8], the IC50 is 4.23 ± 0.66 µM with Aorta and 1.18 ± 0.45 µM in assay [1] (isolated rat bladder strips). For the same compound, in assay [1], the “IC50 (A)/ IC50 (B)” value is on record as 3.58.
In the case of `C/C(=C\c1ccc(C(F)(F)F)cc1)C(=O)Nc1ccc(Cl)cc1C(=O)O` [Example 9, (E)-5-Chloro-2-[2-methyl-3-(4-trifluoromethyl-phenyl)-acryloylamino]-benzoic acid lithium salt hemihydrate], the IC50 with Aorta (lithium salt hemihydrate) was determined as 2.76 ± 1.63 µM; in assay [1] (setting [5]) it was 0.52 ± 0.24 µM. The “IC50 (A)/ IC50 (B)” value in assay [1] (lithium salt hemihydrate) is 5.31. Also, the “% Red (F): percent reduction in the total number of spontaneous contractions” value in assay [2] is listed as -71 ± 6%.
As to `C/C(=C\c1ccc(C(F)(F)F)cc1)C(=O)Nc1cc(Cl)ccc1C(=O)O` [Example 10, (E)-4-Chloro-2-[2-methyl-3-(4-trifluoromethyl-phenyl)-acryloylamino]-benzoic acid], the IC50 with Aorta is 6.93 ± 2.4 µM; in assay [1] (isolated rat bladder strips), 1.44 ± 0.85 µM. In assay [1], the “IC50 (A)/ IC50 (B)” value is recorded as 4.81.
As for `C/C(=C\c1ccc(C(F)(F)F)cc1)C(=O)Nc1cc(Cl)ccc1C(=O)O` [Example 11, (E)-4-Chloro-2-[2-methyl-3-(4-trifluoromethyl-phenyl)-acryloylamino]-benzoic acid lithium salt hemihydrate], the IC50 in assay [1] (setting [5]) worked out at 3.45 ± 0.75 µM.
As to `C/C(=C\c1ccc(C(F)(F)F)cc1)C(=O)Nc1ncccc1C(=O)O` [Example 12, (E)-2-[2-Methyl-3-(4-trifluoromethyl-phenyl)-acryloylamino]-nicotinic acid], the IC50 in assay [1] (setting [4]) is 11.4 ± 3.8 µM.
The same measure, in the same setting: as for `COc1ccc(NC(=O)/C(C)=C/c2ccc(C(F)(F)F)cc2)c(C(=O)O)c1` [Example 13, (E)-5-Methoxy-2-[2-methyl-3-(4-trifluoromethyl-phenyl)-acryloylamino]-benzoic acid], the figure is 9.6 ± 7.4 µM.
As to `CCN(CC)C(=O)COC(=O)c1ccccc1NC(=O)/C(C)=C/c1ccc(C(F)(F)F)cc1` [Example 14, (E)-2-[2-Methyl-3-(4-trifluoromethyl-phenyI)-acryloylamino]-benzoic acid diethylcarbamoylmethyl ester], in assay [1] (30 μM, isolated rat bladder strips, read-out: I = Percent inhibition at 30 μM), the inhibition at 30 µM was 35.6 ± 5%. Further, the IC50 in assay [1] (setting [4]) is 10.8 ± 0.6 µM.
Consider `COc1ccc(/C=C/C(=O)Nc2ccccc2C(=O)O)cc1OC` [Tranilast, reference compound], for which the values for the IC50 (in the assay with Aorta; in assay [1] (setting [4])) were 15.6 ± 8.96 µM and 14.4 ± 4.5 µM, respectively. The “smooth muscle relaxant potency and bladder selectivity” value in assay [1] (bladder tissue over vascular tissue, Table 1) was “not to be a potent or bladder selective smooth muscle relaxant”.
With `COc1ccc(Cl)cc1C(=O)NCCc1ccc(S(=O)(=O)NC(=O)NC2CCCCC2)cc1` [glyburide, reference compound], the “effect of glyburide on outward current” value in assay [3] is on record as “no effect”.
